The values below come from patent publication US11576873B2, “Compositions for the treatment of drug-resistant tumors and methods of use thereof” (THE CURATORS OF THE UNIVERSITY OF MISSOURI, priority 2017, dated 2023).

Holding throughout (experiment): 72 h toxicity of erlotinib, cell viability / IC50 analysis
Holding throughout (format): cell-based

Assay [1] concerns H820 cells. Particulars: Homo sapiens, NCI-H820, H820 (del E746-E749 and T790M). The procedure:
(§1) FIG. 42A,B. FIG. 42A and 42B show 72 h toxicity of erlotinib in various NSCLC cells lines: (A) Cell viability plot and (B) IC50 analysis. Results were averaged from 3 independent experiments.
(§2) (A, C, E) Represent the cell viability plot and (B, D, F) represent the associated IC50 analysis.
(§3) The IC50 of erlotinib was investigated in multiple cell lines based on their AXL and FN14 expressions and EGFR/KRAS mutant status (FIG. 42). […] The independent and combined effects of AXL and FN14 siRNAs were also examined. siRNA and siRNA based constructs for treatment and studied variation in IC50 of erlotinib in multiples drug resistant cell lines were used.

Assay [2] deals with H1975. Conditions: Homo sapiens, NCI-H1975; T790M mutant H1975, 72 h. The procedure:
as §1, §3

The test system of assay [3] is HCC827. Conditions: HCC827 carrying E746-A750 deletion. Here is the method: as §1, §3
Assay [4] has as its system A549. Here is the method:
as §1, §2, §3
Rho, et al., Cancer Res 2014; 74: 253-262. […] Srikar, et al., Sci Rep 2016; 6: 30245.

What is called IC50 is the concentration that gives 50% inhibition. Take `C#Cc1cccc(Nc2ncnc3cc(OCCOC)c(OCCOC)cc23)c1` [erlotinib]: the IC50 is more than 10 µM in assay [1]; more than 10 µM in assay [2]; more than 10 µM in assay [4] (Homo sapiens, A549, 72 h, read-out: IC50 of erlotinib). The sensitivity to erlotinib entry in assay [3] is recorded as “highly sensitive”. Further, the “resensitization towards the drug” value in assay [4] (A549, downregulating all three pathways (AXL, FN14, KRAS)) was “total resensitization”.
